Data from patent US10092570B2 (Incyte Corporation, priority 2011, dated 2018).
Structures can show the parent of a compound that is named as a salt.

biological target: PI3Kδ (p110δ/p85α) (Homo sapiens (Human), UniProt O00329); assay: Example A3: PI3Kδ scintillation proximity assay; assay type: biochemical; conditions: scintillation proximity assay, 20 μM ATP, 4 nM PI3Kδ; read-out: PI3Kδ SPA IC50
In short: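 p110δ/p85α (4 nM) phosphorylated 20 μM PIP2 with 20 μM ATP plus [γ-33P]ATP in MOPS pH 6.7, MgCl2, DTT, CHAPS, 0.5% DMSO, at RT. Stopped with EDTA/excess ATP, product captured on WGA SPA beads overnight and counted; IC50 from percent control activity versus log inhibitor.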

PI3Kδ (p110δ/p85α), sequence (O00329 whole entry): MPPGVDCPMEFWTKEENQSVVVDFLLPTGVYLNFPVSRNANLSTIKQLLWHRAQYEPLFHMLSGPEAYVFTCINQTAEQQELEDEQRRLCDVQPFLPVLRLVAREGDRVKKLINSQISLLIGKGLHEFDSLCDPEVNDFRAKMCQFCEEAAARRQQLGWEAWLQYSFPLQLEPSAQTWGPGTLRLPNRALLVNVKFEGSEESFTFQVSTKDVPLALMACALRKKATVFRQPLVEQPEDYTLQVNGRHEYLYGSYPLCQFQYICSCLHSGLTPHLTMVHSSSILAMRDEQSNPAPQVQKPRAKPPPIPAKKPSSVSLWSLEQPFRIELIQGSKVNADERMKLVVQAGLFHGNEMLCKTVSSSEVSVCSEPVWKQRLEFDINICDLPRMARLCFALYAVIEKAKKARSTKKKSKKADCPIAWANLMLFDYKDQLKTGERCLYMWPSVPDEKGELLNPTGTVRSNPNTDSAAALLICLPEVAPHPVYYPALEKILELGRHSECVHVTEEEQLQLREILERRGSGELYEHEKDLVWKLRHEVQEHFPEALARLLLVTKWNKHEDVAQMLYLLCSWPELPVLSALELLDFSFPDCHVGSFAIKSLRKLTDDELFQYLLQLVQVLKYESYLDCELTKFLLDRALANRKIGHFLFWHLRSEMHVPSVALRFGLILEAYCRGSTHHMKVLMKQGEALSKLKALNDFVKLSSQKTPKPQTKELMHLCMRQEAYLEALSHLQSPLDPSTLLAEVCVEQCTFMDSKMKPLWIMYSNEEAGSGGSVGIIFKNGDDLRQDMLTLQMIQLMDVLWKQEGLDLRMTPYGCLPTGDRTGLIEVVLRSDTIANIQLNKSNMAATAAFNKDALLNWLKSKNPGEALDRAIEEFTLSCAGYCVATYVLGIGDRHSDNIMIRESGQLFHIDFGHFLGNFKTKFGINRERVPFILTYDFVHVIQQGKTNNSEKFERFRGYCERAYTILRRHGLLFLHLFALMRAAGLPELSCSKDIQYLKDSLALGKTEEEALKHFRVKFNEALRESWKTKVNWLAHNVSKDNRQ
PI3Kδ (p110δ/p85α), sequence (P27986 whole entry partner): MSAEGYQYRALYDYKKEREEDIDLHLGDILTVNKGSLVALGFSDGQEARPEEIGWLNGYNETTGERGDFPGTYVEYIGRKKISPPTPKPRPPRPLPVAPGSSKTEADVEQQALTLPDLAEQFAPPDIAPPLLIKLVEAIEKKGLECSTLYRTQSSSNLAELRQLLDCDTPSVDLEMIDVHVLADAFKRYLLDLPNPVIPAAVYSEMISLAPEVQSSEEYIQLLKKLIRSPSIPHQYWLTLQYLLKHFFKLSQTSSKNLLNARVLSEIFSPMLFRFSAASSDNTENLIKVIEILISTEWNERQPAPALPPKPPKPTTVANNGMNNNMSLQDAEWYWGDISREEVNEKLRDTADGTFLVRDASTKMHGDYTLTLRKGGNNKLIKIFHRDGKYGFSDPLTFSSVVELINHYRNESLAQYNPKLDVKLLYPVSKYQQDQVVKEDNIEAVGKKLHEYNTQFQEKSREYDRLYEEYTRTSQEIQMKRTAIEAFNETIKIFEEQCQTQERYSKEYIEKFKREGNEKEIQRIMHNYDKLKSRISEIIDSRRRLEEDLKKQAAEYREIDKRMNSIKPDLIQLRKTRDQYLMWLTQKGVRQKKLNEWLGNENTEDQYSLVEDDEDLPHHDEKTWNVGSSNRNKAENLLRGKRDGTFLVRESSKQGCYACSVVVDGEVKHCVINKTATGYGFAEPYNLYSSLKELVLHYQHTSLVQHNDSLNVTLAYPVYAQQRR

| SMILES | IC50 [µM] |
| --- | --- |
| COc1c(C(C)n2nc(C)c3c(N)ncnc32)cc(Cl)c(C#N)c1C1CN(C(C)CO)C1 (single isomer, unassigned) [Example 273, 4-[1-(4-amino-3-methyl-1H-pyrazolo[3,4-d]pyrimidin-1-yl)ethyl]-6-chloro-2-[1-(2-hydroxy-1-methylethyl)azetidin-3-yl]-3-methoxybenzonitrile] | < 0.01 |
| COc1c(C(C)n2nc(C)c3c(N)ncnc32)cc(Cl)c(C#N)c1C1CN(C2CCOCC2)C1 (single isomer, unassigned) [Example 277, 4-[1-(4-Amino-3-methyl-1H-pyrazolo[3,4-d]pyrimidin-1-yl)ethyl]-6-chloro-3-methoxy-2-[1-(tetrahydro-2H-pyran-4-yl)azetidin-3-yl]benzonitrile] | < 0.01 |
| COc1c(C(C)n2nc(C)c3c(N)ncnc32)cc(Cl)c(C#N)c1C1CN(CC2CCOC2)C1 (single isomer, unassigned) [Example 279, 4-[1-(4-Amino-3-methyl-1H-pyrazolo[3,4-d]pyrimidin-1-yl)ethyl]-6-chloro-3-methoxy-2-[1-(tetrahydrofuran-3-ylmethyl)azetidin-3-yl]benzonitrile] | < 0.01 |
| COc1c(C(C)n2nc(C)c3c(N)ncnc32)cc(Cl)c(C#N)c1C1CN(S(=O)(=O)C(C)C)C1 (single isomer, unassigned) [Example 287, 4-[1-(4-Amino-3-methyl-1H-pyrazolo[3,4-d]pyrimidin-1-yl)ethyl]-6-chloro-2-[1-(isopropylsulfonyl)azetidin-3-yl]-3-methoxybenzonitrile] | < 0.01 |
| COc1c(C(C)n2nc(C)c3c(N)ncnc32)cc(Cl)c(C#N)c1C1CN(C(=O)NC(C)(C)C)C1 (single isomer, unassigned) [Example 292, 3-{3-[1-(4-Amino-3-methyl-1H-pyrazolo[3,4-d]pyrimidin-1-yl)ethyl]-5-chloro-6-cyano-2-methoxyphenyl}-N-(tert-butyl)azetidine-1-carboxamide] | < 0.01 |
| COc1c(C(C)n2nc(C)c3c(N)ncnc32)cc(Cl)c(C#N)c1C1CN(C(=O)N(C)C)C1 (single isomer, unassigned) [Example 296, 3-{3-[1-(4-Amino-3-methyl-1H-pyrazolo[3,4-d]pyrimidin-1-yl)ethyl]-5-chloro-6-cyano-2-methoxyphenyl}-N,N-dimethylazetidine-1-carboxamide] | < 0.01 |
| CCC(=O)N1CC(c2c(C)c(Cl)cc(C(C)n3nc(C)c4c(N)ncnc43)c2OC)C1 (centres unmarked) [Example 3, 1-{1-[5-Chloro-2-methoxy-4-methyl-3-(1-propionylazetidin-3-yl)phenyl]ethyl}-3-methyl-1H-pyrazolo[3,4-d]pyrimidin-4-amine trifluoroacetate] | < 0.01 |
| COc1c(C(C)n2nc(C)c3c(N)ncnc32)cc(Cl)c(C)c1-c1ccc(C(=O)N(C)C)nc1 (centres unmarked) [Example 11, 5-{3-[1-(4-Amino-3-methyl-1H-pyrazolo[3,4-d]pyrimidin-1-yl)ethyl]-5-chloro-2-methoxy-6-methylphenyl}-N,N-dimethylpyridine-2-carboxamide bis(trifluoroacetate)] | < 0.01 |
| COc1c(C(C)n2ccc3c(N)ncnc32)cc(Cl)c(C)c1-c1ccc(C(=O)N(C)C)nc1 (centres unmarked) [Example 12, 5-{3-[1-(4-Amino-7H-pyrrolo[2,3-d]pyrimidin-7-yl)ethyl]-5-chloro-2-methoxy-6-methylphenyl}-N,N-dimethylpyridine-2-carboxamide trifluoroacetate] | 0.2 to 0.5 |
| COc1c(C(C)n2nc(C)c3c(N)ncnc32)cc(Cl)c(C)c1-c1ccnc(C(=O)N(C)C)c1 (centres unmarked) [Example 16, 4-{3-[1-(4-Amino-3-methyl-1H-pyrazolo[3,4-d]pyrimidin-1-yl)ethyl]-5-chloro-2-methoxy-6-methylphenyl}-N,N-dimethylpyridine-2-carboxamide] | < 0.01 |
| COc1c(C(C)n2nc(C)c3c(N)ncnc32)cc(Cl)c(C)c1-c1ccc(C(=O)NCCO)nc1 (centres unmarked) [Example 23, 5-(3-(1-(4-amino-3-methyl-1H-pyrazolo[3,4-d]pyrimidin-1-yl)ethyl)-5-chloro-2-methoxy-6-methylphenyl)-N-(2-hydroxyethyl)picolinamide trifluoroacetate] | < 0.01 |

Second part, the compound after the results:

| IC50 [µM] | SMILES |
| --- | --- |
| < 0.01 | CCOc1c(C(C)n2nc(C)c3c(N)ncnc32)cc(Cl)c(C#N)c1C1CN(C(=O)C(C)(C)O)C1 (single isomer, unassigned) [Example 247, 4-[1-(4-Amino-3-methyl-1H-pyrazolo[3,4-d]pyrimidin-1-yl)ethyl]-6-chloro-3-ethoxy-2-[1-(2-hydroxy-2-methylpropanoyl)azetidin-3-yl]benzonitrile] |
| < 0.01 | CCOc1c(C(C)n2nc(C)c3c(N)ncnc32)cc(Cl)c(C#N)c1C1CN(S(=O)(=O)CC)C1 (single isomer, unassigned) [Example 249, 4-[1-(4-Amino-3-methyl-1H-pyrazolo[3,4-d]pyrimidin-1-yl)ethyl]-6-chloro-3-ethoxy-2-[1-(ethylsulfonyl)azetidin-3-yl]benzonitrile] |
| < 0.01 | CCOc1c(C(C)n2nc(C)c3c(N)ncnc32)cc(Cl)c(C#N)c1C1CN(C(=O)OC(C)C)C1 (single isomer, unassigned) [Example 254, Isopropyl 3-{3-[1-(4-amino-3-methyl-1H-pyrazolo[3,4-d]pyrimidin-1-yl)ethyl]-5-chloro-6-cyano-2-ethoxyphenyl}azetidine-1-carboxylate] |
| < 0.01 | COc1c(C(C)n2nc(C)c3c(N)ncnc32)cc(Cl)c(C#N)c1C1CNC1 (single isomer, unassigned) [Example 261, 4-[1-(4-Amino-3-methyl-1H-pyrazolo[3,4-d]pyrimidin-1-yl)ethyl]-2-azetidin-3-yl-6-chloro-3-methoxybenzonitrile] |
| < 0.01 | COc1c(C(C)n2nc(C)c3c(N)ncnc32)cc(Cl)c(C#N)c1C1CN(C2COC2)C1 (single isomer, unassigned) [Example 274, 4-[1-(4-Amino-3-methyl-1H-pyrazolo[3,4-d]pyrimidin-1-yl)ethyl]-6-chloro-3-methoxy-2-(1-oxetan-3-ylazetidin-3-yl)benzonitrile] |
| < 0.01 | COc1c(C(C)n2nc(C)c3c(N)ncnc32)cc(Cl)c(C#N)c1C1CN(C2CCOC2)C1 (single isomer, unassigned) [Example 276, 4-[1-(4-Amino-3-methyl-1H-pyrazolo[3,4-d]pyrimidin-1-yl)ethyl]-6-chloro-3-methoxy-2-[1-(tetrahydrofuran-3-yl)azetidin-3-yl]benzonitrile] |
| < 0.01 | COc1c(C(C)n2nc(C)c3c(N)ncnc32)cc(Cl)c(C#N)c1C1CN(C(C)=O)C1 (single isomer, unassigned) [Example 281, 2-(1-Acetylazetidin-3-yl)-4-[1-(4-amino-3-methyl-1H-pyrazolo[3,4-d]pyrimidin-1-yl)ethyl]-6-chloro-3-methoxybenzonitrile] |
| < 0.01 | COc1c(C(C)n2nc(C)c3c(N)ncnc32)cc(Cl)c(C#N)c1C1CN(S(C)(=O)=O)C1 (single isomer, unassigned) [Example 285, 4-[1-(4-Amino-3-methyl-1H-pyrazolo[3,4-d]pyrimidin-1-yl)ethyl]-6-chloro-3-methoxy-2-[1-(methylsulfonyl)azetidin-3-yl]benzonitrile] |
| < 0.01 | COC(=O)N1CC(c2c(C#N)c(Cl)cc(C(C)n3nc(C)c4c(N)ncnc43)c2OC)C1 (single isomer, unassigned) [Example 289, Methyl 3-{3-[1-(4-amino-3-methyl-1H-pyrazolo[3,4-d]pyrimidin-1-yl)ethyl]-5-chloro-6-cyano-2-methoxyphenyl}azetidine-1-carboxylate] |
| < 0.01 | COc1c(C(C)n2nc(C)c3c(N)ncnc32)cc(Cl)c(C#N)c1C1CN(C(N)=O)C1 (single isomer, unassigned) [Example 293, 3-{3-[1-(4-Amino-3-methyl-1H-pyrazolo[3,4-d]pyrimidin-1-yl)ethyl]-5-chloro-6-cyano-2-methoxyphenyl}azetidine-1-carboxamide] |
| < 0.01 | CNC(=O)N1CC(c2c(C#N)c(Cl)cc(C(C)n3nc(C)c4c(N)ncnc43)c2OC)C1 (single isomer, unassigned) [Example 294, 3-{3-[1-(4-Amino-3-methyl-1H-pyrazolo[3,4-d]pyrimidin-1-yl)ethyl]-5-chloro-6-cyano-2-methoxyphenyl}-N-methylazetidine-1-carboxamide] |
| > 0.5 | CCOc1c(C(C)n2nc(C)c3c(N)ncnc32)cc(Cl)c(F)c1C1COC(=O)N1 (single isomer, unassigned) [Example 353, 4-{3-[1-(4-amino-3-methyl-1H-pyrazolo[3,4-d]pyrimidin-1-yl)ethyl]-5-chloro-2-ethoxy-6-fluorophenyl}-1,3-oxazolidin-2-one] |
| < 0.01 | COc1c(C(C)n2nc(C)c3c(N)ncnc32)cc(Cl)c(C)c1C1CN(C(C)=O)C1 (centres unmarked) [Example 2, 1-{1-[3-(1-Acetylazetidin-3-yl)-5-chloro-2-methoxy-4-methylphenyl]ethyl}-3-methyl-1H-pyrazolo[3,4-d]pyrimidin-4-amine trifluoroacetate] |
| < 0.01 | CCC(C)N1CC(c2c(C)c(Cl)cc(C(C)n3nc(C)c4c(N)ncnc43)c2OC)C1 (centres unmarked) [Example 8, 1-{1-[3-(1-sec-butylazetidin-3-yl)-5-chloro-2-methoxy-4-methylphenyl]ethyl}-3-methyl-1H-pyrazolo[3,4-d]pyrimidin-4-amine] |
| < 0.01 | CCOc1c(C(C)n2nc(C)c3c(N)ncnc32)cc(Cl)c(C)c1-c1ccc(C(=O)N(C)C)nc1 (centres unmarked) [Example 14, 5-{3-[1-(4-Amino-3-methyl-1H-pyrazolo[3,4-d]pyrimidin-1-yl)ethyl]-5-chloro-2-ethoxy-6-methylphenyl}-N,N-dimethylpyridine-2-carboxamide bis(trifluoroacetate)] |
